Experimental data from US8686044B2, “Amide derivative, pest control agent containing the amide derivative, and use of the amide derivative” (Mitsui Chemicals Agro, Inc., priority 2008, dated 2014).

Tests used:
Assay type in all cases: in vivo
Plutella xylostella = experiment: Pesticidal test against Plutella xylostella (cabbage leaf dip); conditions: foliar, 144 h, 2-stage larvae, examined after 6 days, 25° C., read-out: pesticidal rate; for pest or weed control at 1 ppm: concentration 1 ppm; for pest or weed control at 10 ppm: concentration 10 ppm
Procedure, shortened: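 Second-stage larvae (5 per group, two replicates) were released onto air-dried cabbage leaf discs that had been immersed for 30 seconds in compound solution at a set concentration. Mortality was scored after 6 days at 25° C.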

Spodoptera litura = experiment: Pesticidal test against Spodoptera litura (cabbage leaf dip); conditions: foliar, 144 h, 2-stage larvae, examined after 6 days, 25° C., read-out: pesticidal rate; for pest or weed control at 1 ppm: concentration 1 ppm
Procedure, shortened: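 Cabbage leaf pieces dipped 30 seconds in compound solution at a predetermined concentration and air-dried, then offered to second-stage larvae, five per group in two replicates. Held at 25° C. Living and dead larvae counted after 6 days.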

Laodelphax striatellus = experiment: Pesticidal test against Laodelphax striatellus (rice seedling spray); conditions: 144 h, concentration 100 ppm, 3-stage larvae, examined after 6 days, 25° C., read-out: pesticidal rate
Method: Pesticidal Test against Laodelphax striatellus
2.5 ml of an acetone solution in which a test compound had been prepared at a predetermined concentration was sprayed on rice seedlings, air-dried, and then put into a glass tube having a diameter of 3 cm and a height of 13 cm, having water therein, and 3-stage larvae of Laodelphax striatellus were released and the tube was capped. They were left to stand in a thermostatic chamber at 25° C., and the numbers of the living pests and the dead pests were examined after 6 days. The test was carried out with ten larvae per group in two replicates.

CN(C(=O)c1cccnc1F)c1cccc(C(=O)Nc2c(Br)cc(C(F)(C(F)(F)F)C(F)(F)F)cc2C(F)(F)F)c1 [7-303]
≥ 70%: pest or weed control at 1 ppm (Plutella xylostella) | pest or weed control at 1 ppm (Spodoptera litura) | pest or weed control at 100 ppm (Laodelphax striatellus)

CN(C(=O)c1cccnc1Cl)c1cccc(C(=O)Nc2c(Br)cc(C(F)(C(F)(F)F)C(F)(F)F)cc2C(F)(F)F)c1 [7-304]
≥ 70%: pest or weed control at 1 ppm (Plutella xylostella) | pest or weed control at 1 ppm (Spodoptera litura) | pest or weed control at 100 ppm (Laodelphax striatellus)

CN(C(=O)c1ccc(Cl)nc1)c1cccc(C(=O)Nc2c(Br)cc(C(F)(C(F)(F)F)C(F)(F)F)cc2C(F)(F)F)c1 [7-311]
≥ 70%: pest or weed control at 1 ppm (Plutella xylostella) | pest or weed control at 1 ppm (Spodoptera litura) | pest or weed control at 100 ppm (Laodelphax striatellus)

CN(C(=O)c1ccc(C#N)nc1)c1cccc(C(=O)Nc2c(Br)cc(C(F)(C(F)(F)F)C(F)(F)F)cc2C(F)(F)F)c1 [7-316]
≥ 70%: pest or weed control at 10 ppm (Plutella xylostella) | pest or weed control at 10 ppm (Spodoptera litura; concentration 10 ppm) | pest or weed control at 100 ppm (Laodelphax striatellus)

CN(C(=O)c1cccc(F)c1)c1cccc(C(=O)Nc2c(I)cc(C(F)(C(F)(F)F)C(F)(F)F)cc2C(F)(F)F)c1 [7-426]
≥ 70%: pest or weed control at 1 ppm (Plutella xylostella) | pest or weed control at 1 ppm (Spodoptera litura) | pest or weed control at 100 ppm (Laodelphax striatellus)

CN(C(=O)c1ccc(F)cc1)c1cccc(C(=O)Nc2c(I)cc(C(F)(C(F)(F)F)C(F)(F)F)cc2C(F)(F)F)c1 [7-427]
≥ 70%: pest or weed control at 1 ppm (Plutella xylostella) | pest or weed control at 1 ppm (Spodoptera litura) | pest or weed control at 100 ppm (Laodelphax striatellus)

CN(C(=O)c1ccc(C#N)cc1)c1cccc(C(=O)Nc2c(I)cc(C(F)(C(F)(F)F)C(F)(F)F)cc2C(F)(F)F)c1 [7-445]
≥ 70%: pest or weed control at 1 ppm (Plutella xylostella) | pest or weed control at 1 ppm (Spodoptera litura) | pest or weed control at 100 ppm (Laodelphax striatellus)

CN(C(=O)c1cccnc1Cl)c1cccc(C(=O)Nc2c(I)cc(C(F)(C(F)(F)F)C(F)(F)F)cc2C(F)(F)F)c1 [7-460]
≥ 70%: pest or weed control at 1 ppm (Plutella xylostella) | pest or weed control at 1 ppm (Spodoptera litura) | pest or weed control at 100 ppm (Laodelphax striatellus)

CN(C(=O)c1ccc(Cl)nc1)c1cccc(C(=O)Nc2c(I)cc(C(F)(C(F)(F)F)C(F)(F)F)cc2C(F)(F)F)c1 [7-467]
≥ 70%: pest or weed control at 1 ppm (Plutella xylostella) | pest or weed control at 1 ppm (Spodoptera litura) | pest or weed control at 100 ppm (Laodelphax striatellus)

CN(C(=O)c1ccc(C#N)cc1)c1cccc(C(=O)Nc2c(C(F)(F)F)cc(C(F)(C(F)(F)F)C(F)(F)F)cc2C(F)(F)F)c1 [7-825]
≥ 70%: pest or weed control at 10 ppm (Plutella xylostella) | pest or weed control at 1 ppm (Spodoptera litura) | pest or weed control at 100 ppm (Laodelphax striatellus)

CN(C(=O)c1cccnc1Cl)c1cccc(C(=O)Nc2c(C(F)(F)F)cc(C(F)(C(F)(F)F)C(F)(F)F)cc2C(F)(F)F)c1 [7-840]
≥ 70%: pest or weed control at 1 ppm (Plutella xylostella) | pest or weed control at 1 ppm (Spodoptera litura) | pest or weed control at 100 ppm (Laodelphax striatellus)

CN(C(=O)c1ccccc1)c1cccc(C(=O)Nc2c(Cl)cc(C(F)(C(F)(F)F)C(F)(F)F)cc2Cl)c1F [7-948]
≥ 70%: pest or weed control at 1 ppm (Plutella xylostella) | pest or weed control at 1 ppm (Spodoptera litura) | pest or weed control at 100 ppm (Laodelphax striatellus)

CN(C(=O)c1cccnc1Cl)c1cccc(C(=O)Nc2c(Cl)cc(C(F)(C(F)(F)F)C(F)(F)F)cc2Cl)c1F [7-984]
≥ 70%: pest or weed control at 1 ppm (Plutella xylostella) | pest or weed control at 1 ppm (Spodoptera litura) | pest or weed control at 100 ppm (Laodelphax striatellus)

CN(C(=O)c1cccnc1Cl)c1cccc(C(=O)Nc2c(Br)cc(C(F)(C(F)(F)F)C(F)(F)F)cc2Br)c1F [7-1140]
≥ 70%: pest or weed control at 1 ppm (Plutella xylostella) | pest or weed control at 1 ppm (Spodoptera litura) | pest or weed control at 100 ppm (Laodelphax striatellus)

CN(C(=O)c1ccc(Cl)nc1)c1cccc(C(=O)Nc2c(Br)cc(C(F)(C(F)(F)F)C(F)(F)F)cc2Br)c1F [7-1147]
≥ 70%: pest or weed control at 1 ppm (Plutella xylostella) | pest or weed control at 1 ppm (Spodoptera litura) | pest or weed control at 100 ppm (Laodelphax striatellus)

CN(C(=O)c1ccccc1)c1cccc(C(=O)Nc2c(Br)cc(C(F)(C(F)(F)F)C(F)(F)C(F)(F)F)cc2Br)c1F (stereo not drawn) [7-1182, N-(2,6-dibromo-4-(perfluorobutan-2-yl)phenyl)-2-fluoro-3-(N-methylbenzamide)benzamide]
≥ 70%: pest or weed control at 1 ppm (Plutella xylostella) | pest or weed control at 1 ppm (Spodoptera litura) | pest or weed control at 100 ppm (Laodelphax striatellus)

CN(C(=O)c1ccccc1F)c1cccc(C(=O)Nc2c(Br)cc(C(F)(C(F)(F)F)C(F)(F)C(F)(F)F)cc2Br)c1F (stereo not drawn) [7-1183]
≥ 70%: pest or weed control at 1 ppm (Plutella xylostella) | pest or weed control at 1 ppm (Spodoptera litura) | pest or weed control at 100 ppm (Laodelphax striatellus)

CN(C(=O)c1cccc(F)c1)c1cccc(C(=O)Nc2c(Br)cc(C(F)(C(F)(F)F)C(F)(F)C(F)(F)F)cc2Br)c1F (stereo not drawn) [7-1184]
≥ 70%: pest or weed control at 1 ppm (Plutella xylostella) | pest or weed control at 1 ppm (Spodoptera litura) | pest or weed control at 100 ppm (Laodelphax striatellus)

CN(C(=O)c1ccc(F)cc1)c1cccc(C(=O)Nc2c(Br)cc(C(F)(C(F)(F)F)C(F)(F)C(F)(F)F)cc2Br)c1F (stereo not drawn) [7-1185]
≥ 70%: pest or weed control at 1 ppm (Plutella xylostella) | pest or weed control at 1 ppm (Spodoptera litura) | pest or weed control at 100 ppm (Laodelphax striatellus)

CN(C(=O)c1ccc(C#N)cc1)c1cccc(C(=O)Nc2c(Br)cc(C(F)(C(F)(F)F)C(F)(F)C(F)(F)F)cc2Br)c1F (stereo not drawn) [7-1203]
≥ 70%: pest or weed control at 1 ppm (Plutella xylostella) | pest or weed control at 1 ppm (Spodoptera litura) | pest or weed control at 100 ppm (Laodelphax striatellus)

CN(C(=O)c1c(F)cccc1F)c1cccc(C(=O)Nc2c(Br)cc(C(F)(C(F)(F)F)C(F)(F)C(F)(F)F)cc2Br)c1F (stereo not drawn) [7-1204]
≥ 70%: pest or weed control at 1 ppm (Plutella xylostella) | pest or weed control at 1 ppm (Spodoptera litura) | pest or weed control at 100 ppm (Laodelphax striatellus)

CN(C(=O)c1cccnc1Cl)c1cccc(C(=O)Nc2c(Br)cc(C(F)(C(F)(F)F)C(F)(F)C(F)(F)F)cc2Br)c1F (stereo not drawn) [7-1218]
≥ 70%: pest or weed control at 1 ppm (Plutella xylostella) | pest or weed control at 1 ppm (Spodoptera litura) | pest or weed control at 100 ppm (Laodelphax striatellus)

CN(C(=O)c1ccc(Cl)nc1)c1cccc(C(=O)Nc2c(Br)cc(C(F)(C(F)(F)F)C(F)(F)C(F)(F)F)cc2Br)c1F (stereo not drawn) [7-1225]
≥ 70%: pest or weed control at 1 ppm (Plutella xylostella) | pest or weed control at 1 ppm (Spodoptera litura) | pest or weed control at 100 ppm (Laodelphax striatellus)

CN(C(=O)c1ccccc1F)c1cccc(C(=O)Nc2c(I)cc(C(F)(C(F)(F)F)C(F)(F)C(F)(F)F)cc2I)c1F (stereo not drawn) [7-1339]
≥ 70%: pest or weed control at 1 ppm (Plutella xylostella) | pest or weed control at 1 ppm (Spodoptera litura) | pest or weed control at 100 ppm (Laodelphax striatellus)

CN(C(=O)c1ccc(F)cc1)c1cccc(C(=O)Nc2c(I)cc(C(F)(C(F)(F)F)C(F)(F)C(F)(F)F)cc2I)c1F (stereo not drawn) [7-1341]
≥ 70%: pest or weed control at 1 ppm (Plutella xylostella) | pest or weed control at 1 ppm (Spodoptera litura) | pest or weed control at 100 ppm (Laodelphax striatellus)

CN(C(=O)c1cccnc1Cl)c1cccc(C(=O)Nc2c(I)cc(C(F)(C(F)(F)F)C(F)(F)C(F)(F)F)cc2I)c1F (stereo not drawn) [7-1374]
≥ 70%: pest or weed control at 1 ppm (Plutella xylostella) | pest or weed control at 1 ppm (Spodoptera litura) | pest or weed control at 100 ppm (Laodelphax striatellus)

CN(C(=O)c1cccnc1)c1cccc(C(=O)Nc2c(Br)cc(C(F)(C(F)(F)F)C(F)(F)F)cc2C(F)(F)F)c1F [7-1608]
≥ 70%: pest or weed control at 1 ppm (Plutella xylostella) | pest or weed control at 1 ppm (Spodoptera litura) | pest or weed control at 100 ppm (Laodelphax striatellus)

CN(C(=O)c1cccnc1Cl)c1cccc(C(=O)Nc2c(Br)cc(C(F)(C(F)(F)F)C(F)(F)F)cc2C(F)(F)F)c1F [7-1610]
≥ 70%: pest or weed control at 1 ppm (Plutella xylostella) | pest or weed control at 1 ppm (Spodoptera litura) | pest or weed control at 100 ppm (Laodelphax striatellus)

CN(C(=O)c1ccncc1)c1cccc(C(=O)Nc2c(Br)cc(C(F)(C(F)(F)F)C(F)(F)F)cc2C(F)(F)F)c1F [7-1639]
≥ 70%: pest or weed control at 1 ppm (Plutella xylostella) | pest or weed control at 1 ppm (Spodoptera litura) | pest or weed control at 100 ppm (Laodelphax striatellus)

CN(C(=O)c1cccc(C#N)c1)c1cccc(C(=O)Nc2c(Br)cc(C(F)(C(F)(F)F)C(F)(F)C(F)(F)F)cc2C(F)(F)F)c1F (stereo not drawn) [7-1672]
≥ 70%: pest or weed control at 1 ppm (Plutella xylostella) | pest or weed control at 1 ppm (Spodoptera litura) | pest or weed control at 100 ppm (Laodelphax striatellus)

CN(C(=O)c1ccc(C#N)cc1)c1cccc(C(=O)Nc2c(Br)cc(C(F)(C(F)(F)F)C(F)(F)C(F)(F)F)cc2C(F)(F)F)c1F (stereo not drawn) [7-1673]
≥ 70%: pest or weed control at 1 ppm (Plutella xylostella) | pest or weed control at 1 ppm (Spodoptera litura) | pest or weed control at 100 ppm (Laodelphax striatellus)

CN(C(=O)c1cccnc1Cl)c1cccc(C(=O)Nc2c(I)cc(C(F)(C(F)(F)F)C(F)(F)C(F)(F)F)cc2C(F)(F)F)c1F (stereo not drawn) [7-1844]
≥ 70%: pest or weed control at 1 ppm (Plutella xylostella) | pest or weed control at 1 ppm (Spodoptera litura) | pest or weed control at 100 ppm (Laodelphax striatellus)

CN(C(=O)c1ccccc1)c1cc(C(=O)Nc2c(Br)cc(C(F)(C(F)(F)F)C(F)(F)F)cc2C(F)(F)F)ccc1F [7-3348]
≥ 70%: pest or weed control at 1 ppm (Plutella xylostella) | pest or weed control at 1 ppm (Spodoptera litura) | pest or weed control at 100 ppm (Laodelphax striatellus)

CN(C(=O)c1ccc(C#N)cc1)c1cc(C(=O)Nc2c(Br)cc(C(F)(C(F)(F)F)C(F)(F)F)cc2C(F)(F)F)ccc1F [7-3369]
≥ 70%: pest or weed control at 1 ppm (Plutella xylostella) | pest or weed control at 1 ppm (Spodoptera litura) | pest or weed control at 100 ppm (Laodelphax striatellus)

CN(C(=O)c1ccccc1)c1cccc(C(=O)Nc2c(Br)cc(C(F)(C(F)(F)F)C(F)(F)F)cc2I)c1F [7-5902]
≥ 70%: pest or weed control at 1 ppm (Plutella xylostella) | pest or weed control at 1 ppm (Spodoptera litura) | pest or weed control at 100 ppm (Laodelphax striatellus)

CN(C(=O)c1cccnc1Cl)c1cccc(C(=O)Nc2c(Br)cc(C(F)(C(F)(F)F)C(F)(F)F)cc2I)c1F [7-5903]
≥ 70%: pest or weed control at 1 ppm (Plutella xylostella) | pest or weed control at 1 ppm (Spodoptera litura) | pest or weed control at 100 ppm (Laodelphax striatellus)

CN(C(=O)c1cccc(F)c1)c1cccc(C(=O)Nc2c(I)cc(C(F)(C(F)(F)F)C(F)(F)C(F)(F)F)cc2I)c1 (stereo not drawn) [7-5904]
≥ 70%: pest or weed control at 1 ppm (Plutella xylostella) | pest or weed control at 1 ppm (Spodoptera litura) | pest or weed control at 100 ppm (Laodelphax striatellus)

CN(C(=O)c1cccc(F)c1)c1cccc(C(=O)Nc2c(Br)cc(C(F)(C(F)(F)F)C(F)(F)C(F)(F)F)cc2Br)c1 (stereo not drawn) [7-5906]
≥ 70%: pest or weed control at 1 ppm (Plutella xylostella) | pest or weed control at 1 ppm (Spodoptera litura) | pest or weed control at 100 ppm (Laodelphax striatellus)
